Active and inactive are the calls of the source.
Experiments:
[1] = target: Vascular endothelial growth factor receptor 2 (Homo sapiens, UniProt P35968); format: functional
[2] = target: Cyclin-dependent kinase 5 (Homo sapiens, UniProt Q00535); format: functional;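 note: CDK5 measured as one member of a kinase profiling panel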
Aurora kinase A = Aurora kinase A (Homo sapiens, UniProt O14965); format: functional;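 note: value from the Navigating the Kinome kinase panel profiling, panel entry STK6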
[3] = target: Dual specificity tyrosine-phosphorylation-regulated kinase 1A (Homo sapiens, UniProt Q13627); format: functional;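 note: measured against DYRK1A as one member of a broad kinome profiling panel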
[4] = target: Proto-oncogene tyrosine-protein kinase receptor Ret (Homo sapiens, UniProt P07949); format: functional;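 note: measured within a kinome-wide profiling panel, RET as the panel member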
[5] = target: Mitogen-activated protein kinase kinase kinase kinase 4 (Homo sapiens, UniProt O95819); format: functional
Aurora kinase B = Aurora kinase B (Homo sapiens, UniProt Q96GD4); format: functional
[6] = target: Dual specificity protein kinase CLK4 (Homo sapiens, UniProt Q9HAZ1); format: functional
[7] = target: Serine/threonine-protein kinase Chk1 (Homo sapiens, UniProt O14757); format: functional;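 note: measured as one member of a kinome-wide kinase profiling panel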
[8] = target: Platelet-derived growth factor receptor beta (Homo sapiens, UniProt P09619); format: functional;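 note: value comes from a kinome panel, with PDGFRB tested as one panel member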
[9] = target: Calcium/calmodulin-dependent protein kinase type II subunit alpha (Homo sapiens, UniProt Q9UQM7); assay: Navigating the Kinome. Panel member name: CAMK2A; format: functional
[10] = target: Tyrosine-protein kinase ABL1 (Homo sapiens, UniProt P00519); format: functional
[11] = target: Platelet-derived growth factor receptor alpha (Homo sapiens, UniProt P16234); assay: Navigating the Kinome. Panel member name: PDGFRA; format: functional
[12] = target: Serine/threonine-protein kinase Nek2 (Homo sapiens, UniProt P51955); format: functional
[13] = target: Leukocyte tyrosine kinase receptor (Homo sapiens, UniProt P29376); assay: Navigating the Kinome. Panel member name: LTK; format: functional
Focal adhesion kinase 1 = Focal adhesion kinase 1 (Homo sapiens, UniProt Q05397); format: functional;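 note: measured as one member of a kinome panel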
[14] = target: Dual specificity tyrosine-phosphorylation-regulated kinase 1B (Homo sapiens, UniProt Q9Y463); assay: Navigating the Kinome. Panel member name: DYRK1B; format: functional
[15] = target: cAMP-dependent protein kinase catalytic subunit alpha (Homo sapiens, UniProt P17612); format: functional
[16] = target: Cyclin-dependent kinase 8 (Homo sapiens, UniProt P49336); assay: Navigating the Kinome. Panel member name: CDK8; format: functional
[17] = target: Hepatocyte growth factor receptor (Homo sapiens, UniProt P08581); format: functional;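 note: kinase panel profiling across the kinome, with MET as the panel member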
[18] = target: G protein-coupled receptor kinase 5 (Homo sapiens, UniProt P34947); assay: Navigating the Kinome. Panel member name: GPRK5; format: functional
[19] = target: Fibroblast growth factor receptor 1 (Homo sapiens, UniProt P11362); format: functional
[20] = target: Macrophage colony-stimulating factor 1 receptor (Homo sapiens, UniProt P07333); format: functional;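 note: value comes from the Navigating the Kinome screening panel, CSF1R member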
[21] = target: Casein kinase I isoform alpha (Homo sapiens, UniProt P48729); format: functional
[22] = target: Tyrosine-protein kinase receptor TYRO3 (Homo sapiens, UniProt Q06418); format: functional;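 note: TYRO3 value obtained as one member of a kinome-wide profiling panel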
[23] = target: Dual specificity mitogen-activated protein kinase kinase 1 (Homo sapiens, UniProt Q02750); assay: Navigating the Kinome. Panel member name: MAP2K1; format: functional
[24] = target: Inhibitor of nuclear factor kappa-B kinase subunit epsilon (Homo sapiens, UniProt Q14164); assay: Navigating the Kinome. Panel member name: IKBKE; format: functional
[25] = target: Protein kinase C theta type (Homo sapiens, UniProt Q04759); assay: Navigating the Kinome. Panel member name: PRKCQ; format: functional
Activated CDC42 kinase 1 = Activated CDC42 kinase 1 (Homo sapiens, UniProt Q07912); assay: Navigating the Kinome. Panel member name: ACK1; format: functional
[26] = target: Vascular endothelial growth factor receptor 1 (Homo sapiens, UniProt P17948); format: functional;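 note: measured within a kinome-wide profiling panel, FLT1 as the panel member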
[27] = target: DNA dC->dU-editing enzyme APOBEC-3A (Homo sapiens, UniProt P31941); assay: SAR analysis of small molecule inhibitors of APOBEC3A DNA Deaminase via a fluorescence-based single-stranded DNA deaminase assay.; format: functional; details: read-out: IC50_Mean
[28] = target: DNA dC->dU-editing enzyme APOBEC-3G (Homo sapiens, UniProt Q9HC16); assay: inhibition of APOBEC3G ssDNA deamination – biochemical, fluorescence, single-stranded DNA substrate, SAR follow-up (AID 602136); format: functional; details: read-out: IC50_Mean
INS1 = assay: suppression of NO production in INS-1E cells – cell-based, Griess absorbance, dry powder, set 2, dose response (AID 488868); format: functional; details: Rattus norvegicus
[29] = suppression of NO production in INS-1E cells – cell-based, Griess absorbance, dry powder, set 3, dose response (AID 488870); format: functional; details: Rattus norvegicus
[30] = target: T1, C-C chemokine receptor type 6 (Homo sapiens, UniProt P51684); assay: antagonism of CCR6 beta-arrestin recruitment – cell-based, luminescent beta-arrestin readout, dose response (AID 504728); format: functional
T1 sequence (P51684 whole entry): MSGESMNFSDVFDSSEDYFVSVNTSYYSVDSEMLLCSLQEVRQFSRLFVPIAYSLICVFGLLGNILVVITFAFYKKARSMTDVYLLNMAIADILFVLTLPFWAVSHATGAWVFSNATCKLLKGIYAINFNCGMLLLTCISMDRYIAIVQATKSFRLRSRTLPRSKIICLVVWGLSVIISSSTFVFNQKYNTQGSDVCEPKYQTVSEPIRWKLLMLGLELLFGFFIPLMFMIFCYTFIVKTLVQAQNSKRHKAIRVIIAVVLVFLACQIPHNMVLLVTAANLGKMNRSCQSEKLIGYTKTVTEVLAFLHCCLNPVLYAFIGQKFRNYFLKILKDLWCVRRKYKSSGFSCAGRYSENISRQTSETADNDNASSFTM

Apelin receptor = Apelin receptor (Homo sapiens, UniProt P35414); assay: apelin receptor antagonists, arrestin read-out – cell-based, luminescent, enzyme-fragment complementation, selectivity assay for CCR6 antagonist project, SAR follow-up (AID 588359); format: functional
[31] = target: T2, Heat shock factor protein 1 (Mus musculus, UniProt P38532); assay: enhancement of HSF1-driven luciferase signal – cell-based, NIH3T3, luminescence, dose retest, confirmation (AID 435004); format: functional;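 note: stress induced by proteasome inhibitor MG132 added 30 min after compound; luciferase reporter driven by HSF1 response element in NIH3T3 cells; actives raise luminescence as potentiators of the MG132 stress response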
T2 sequence (P38532 whole entry): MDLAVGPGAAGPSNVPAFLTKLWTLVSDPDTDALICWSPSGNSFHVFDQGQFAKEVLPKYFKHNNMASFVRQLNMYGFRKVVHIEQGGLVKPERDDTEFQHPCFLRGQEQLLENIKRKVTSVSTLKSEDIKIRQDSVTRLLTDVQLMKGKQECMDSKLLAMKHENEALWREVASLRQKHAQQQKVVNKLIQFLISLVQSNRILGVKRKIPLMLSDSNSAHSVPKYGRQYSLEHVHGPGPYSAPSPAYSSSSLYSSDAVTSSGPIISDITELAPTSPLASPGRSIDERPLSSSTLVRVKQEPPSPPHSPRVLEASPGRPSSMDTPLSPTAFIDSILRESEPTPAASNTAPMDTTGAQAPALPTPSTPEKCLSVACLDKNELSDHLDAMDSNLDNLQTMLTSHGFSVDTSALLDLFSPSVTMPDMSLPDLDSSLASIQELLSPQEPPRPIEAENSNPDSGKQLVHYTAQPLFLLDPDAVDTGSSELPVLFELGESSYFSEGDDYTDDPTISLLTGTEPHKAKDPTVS

Beta-galactosidase = Beta-galactosidase (Escherichia coli, UniProt Q8VNN2); assay: detection-enzyme interference by beta-gal modulators – biochemical, E. coli enzyme, set 3, artefact control for CCR6 antagonist project, dose response (AID 504712); format: functional
[32] = target: T1, C-C chemokine receptor type 6; assay: analog antagonism of CCR6 beta-arrestin signaling – cell-based, luminescent beta-arrestin readout, SAR follow-up (AID 540334); format: functional
[33] = target: C-X-C chemokine receptor type 5 (Homo sapiens, UniProt P32302); assay: inhibition of CXCL13-driven CXCR5 beta-arrestin recruitment – cell-based, luminescence, CHO-K1 PathHunter, selectivity assay for CCR6 antagonist project, SAR follow-up (AID 540340); format: functional
HEK293 [34] = assay: optical interference in Abeta FP readout, dose response, artefact control for IDE activator project, biochemical, fluorescence polarization (AID 588442); format: functional, cell-based; details: Homo sapiens
Insulin-degrading enzyme [35] = target: T3, Insulin-degrading enzyme (Homo sapiens, UniProt P14735); assay: cellular IDE activation of Abeta substrate cleavage – fluorescence polarization, HEK cells, dose response (AID 588439); format: functional, cell-based
T3 sequence (P14735 whole entry): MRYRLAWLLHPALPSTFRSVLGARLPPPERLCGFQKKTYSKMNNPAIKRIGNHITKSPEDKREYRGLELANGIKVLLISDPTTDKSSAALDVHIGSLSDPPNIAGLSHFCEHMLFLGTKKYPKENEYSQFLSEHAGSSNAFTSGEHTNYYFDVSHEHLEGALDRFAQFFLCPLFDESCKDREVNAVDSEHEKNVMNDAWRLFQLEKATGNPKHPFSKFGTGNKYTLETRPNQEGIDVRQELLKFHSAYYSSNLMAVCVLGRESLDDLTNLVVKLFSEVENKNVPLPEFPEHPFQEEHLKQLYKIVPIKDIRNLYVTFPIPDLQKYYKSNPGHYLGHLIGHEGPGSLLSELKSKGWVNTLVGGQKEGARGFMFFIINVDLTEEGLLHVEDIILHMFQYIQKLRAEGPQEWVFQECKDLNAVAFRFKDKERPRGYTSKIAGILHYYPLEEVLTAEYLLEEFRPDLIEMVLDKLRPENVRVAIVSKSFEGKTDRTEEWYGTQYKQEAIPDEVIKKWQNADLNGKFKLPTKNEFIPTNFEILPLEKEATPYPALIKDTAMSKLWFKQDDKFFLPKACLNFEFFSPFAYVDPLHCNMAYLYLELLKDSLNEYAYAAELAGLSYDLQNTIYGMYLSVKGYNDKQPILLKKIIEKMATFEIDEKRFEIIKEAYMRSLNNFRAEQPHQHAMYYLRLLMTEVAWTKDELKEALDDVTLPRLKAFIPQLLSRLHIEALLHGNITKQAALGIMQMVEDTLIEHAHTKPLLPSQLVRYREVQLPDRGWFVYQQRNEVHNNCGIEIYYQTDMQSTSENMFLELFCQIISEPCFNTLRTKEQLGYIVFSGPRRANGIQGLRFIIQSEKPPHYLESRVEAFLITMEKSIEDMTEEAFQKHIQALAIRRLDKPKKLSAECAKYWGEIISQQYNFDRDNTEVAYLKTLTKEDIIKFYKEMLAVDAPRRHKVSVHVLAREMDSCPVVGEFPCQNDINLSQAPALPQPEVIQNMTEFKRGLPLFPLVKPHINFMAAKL

Beta-lactamase [36] = target: Beta-lactamase (Salmonella choleraesuis (strain SC-B67), UniProt Q5J463)
HEK293 [37] = assay: membrane integrity loss in HEK cells – cell-based, fluorescence, cytotoxicity control for IDE activator project, dose response (AID 588440); format: functional; details: Homo sapiens;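 note: cytotoxicity by LDH release measuring loss of membrane integrity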
Beta-lactamase [38] = target: Beta-lactamase (Pseudomonas aeruginosa, UniProt Q79MP6);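 note: biochemical dose-response test of metallo-beta-lactamase enzyme inhibition, read out by epi-absorbance; purified recombinant IMP-1 metallo-beta-lactamase with nitrocefin as substrate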
[39] = target: G-protein coupled receptor 55 (Homo sapiens, UniProt Q9Y2T6); assay: inhibition of LPI-stimulated GPR55 beta-arrestin translocation – imaging, U2OS, beta-arrestin-GFP, LPI agonist, primary screen (AID 2013); format: functional;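 note: antagonist potency measured as reduced agonist-driven arrestin aggregation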
Insulin-degrading enzyme [40] = target: T3, Insulin-degrading enzyme; assay: recombinant IDE activation, cell-free – biochemical, fluorescence polarization, counter-screen for IDE activator project, dose response (AID 588681)
[41] = Vero cell cytotoxicity, dose response, cytotoxicity control for M. tuberculosis growth inhibitor project, Vero cells, purified and synthesized compounds, set 4 (AID 504854); format: functional; details: Mycobacterium tuberculosis
[42] = THP-1 cell cytotoxicity, cytotoxicity control, set 4 (AID 504911); format: functional; details: Mycobacterium tuberculosis

Sequence of Aurora kinase A (O14965 whole entry): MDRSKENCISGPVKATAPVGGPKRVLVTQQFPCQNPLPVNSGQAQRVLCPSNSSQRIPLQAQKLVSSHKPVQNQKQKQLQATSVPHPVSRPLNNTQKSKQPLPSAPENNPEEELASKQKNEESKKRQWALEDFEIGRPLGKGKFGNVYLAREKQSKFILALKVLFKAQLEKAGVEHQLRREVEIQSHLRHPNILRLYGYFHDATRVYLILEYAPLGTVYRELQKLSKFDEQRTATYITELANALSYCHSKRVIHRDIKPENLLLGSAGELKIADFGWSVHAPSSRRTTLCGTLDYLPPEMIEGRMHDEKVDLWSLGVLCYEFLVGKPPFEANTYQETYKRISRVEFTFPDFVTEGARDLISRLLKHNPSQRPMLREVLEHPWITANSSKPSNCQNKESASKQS
Sequence of Casein kinase I isoform alpha (P48729 whole entry, canonical isoform): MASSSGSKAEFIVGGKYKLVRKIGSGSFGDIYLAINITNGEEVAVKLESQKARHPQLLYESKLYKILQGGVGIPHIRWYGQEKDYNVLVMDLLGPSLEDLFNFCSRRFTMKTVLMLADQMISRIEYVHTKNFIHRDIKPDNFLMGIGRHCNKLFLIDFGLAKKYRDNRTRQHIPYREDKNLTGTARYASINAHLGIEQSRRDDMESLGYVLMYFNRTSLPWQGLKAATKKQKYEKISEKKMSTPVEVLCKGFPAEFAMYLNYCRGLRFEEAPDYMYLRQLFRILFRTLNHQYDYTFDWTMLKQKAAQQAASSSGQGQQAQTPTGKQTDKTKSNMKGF
Sequence of Activated CDC42 kinase 1 (Q07912 whole entry): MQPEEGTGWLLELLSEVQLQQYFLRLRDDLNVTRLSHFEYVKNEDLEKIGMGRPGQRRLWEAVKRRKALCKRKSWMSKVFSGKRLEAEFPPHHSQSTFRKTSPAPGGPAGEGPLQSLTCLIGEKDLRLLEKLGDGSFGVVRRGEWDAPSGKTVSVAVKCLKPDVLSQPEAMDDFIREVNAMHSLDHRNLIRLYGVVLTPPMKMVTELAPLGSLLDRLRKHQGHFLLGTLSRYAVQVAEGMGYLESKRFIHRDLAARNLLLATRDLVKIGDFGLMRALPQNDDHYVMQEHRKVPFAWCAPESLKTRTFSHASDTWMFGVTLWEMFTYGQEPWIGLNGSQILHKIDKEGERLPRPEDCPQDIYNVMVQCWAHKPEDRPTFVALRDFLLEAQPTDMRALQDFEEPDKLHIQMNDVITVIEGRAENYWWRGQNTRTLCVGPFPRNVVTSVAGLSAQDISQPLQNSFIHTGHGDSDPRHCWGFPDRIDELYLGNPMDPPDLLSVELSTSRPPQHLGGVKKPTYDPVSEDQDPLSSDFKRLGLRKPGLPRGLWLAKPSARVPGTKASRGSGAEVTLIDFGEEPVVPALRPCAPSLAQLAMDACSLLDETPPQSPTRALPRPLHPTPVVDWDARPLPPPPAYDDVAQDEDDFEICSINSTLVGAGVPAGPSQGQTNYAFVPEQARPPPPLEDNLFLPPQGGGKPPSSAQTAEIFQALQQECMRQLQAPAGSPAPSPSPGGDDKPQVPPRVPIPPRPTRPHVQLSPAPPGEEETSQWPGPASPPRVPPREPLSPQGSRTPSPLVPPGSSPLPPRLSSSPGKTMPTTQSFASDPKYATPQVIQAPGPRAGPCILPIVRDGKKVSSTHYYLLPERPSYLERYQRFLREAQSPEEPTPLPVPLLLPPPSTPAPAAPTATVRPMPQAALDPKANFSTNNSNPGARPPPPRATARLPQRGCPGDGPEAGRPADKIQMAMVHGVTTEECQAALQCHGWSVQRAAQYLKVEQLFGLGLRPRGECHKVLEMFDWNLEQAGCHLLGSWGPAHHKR
Sequence of Mitogen-activated protein kinase kinase kinase kinase 4 (O95819 whole entry): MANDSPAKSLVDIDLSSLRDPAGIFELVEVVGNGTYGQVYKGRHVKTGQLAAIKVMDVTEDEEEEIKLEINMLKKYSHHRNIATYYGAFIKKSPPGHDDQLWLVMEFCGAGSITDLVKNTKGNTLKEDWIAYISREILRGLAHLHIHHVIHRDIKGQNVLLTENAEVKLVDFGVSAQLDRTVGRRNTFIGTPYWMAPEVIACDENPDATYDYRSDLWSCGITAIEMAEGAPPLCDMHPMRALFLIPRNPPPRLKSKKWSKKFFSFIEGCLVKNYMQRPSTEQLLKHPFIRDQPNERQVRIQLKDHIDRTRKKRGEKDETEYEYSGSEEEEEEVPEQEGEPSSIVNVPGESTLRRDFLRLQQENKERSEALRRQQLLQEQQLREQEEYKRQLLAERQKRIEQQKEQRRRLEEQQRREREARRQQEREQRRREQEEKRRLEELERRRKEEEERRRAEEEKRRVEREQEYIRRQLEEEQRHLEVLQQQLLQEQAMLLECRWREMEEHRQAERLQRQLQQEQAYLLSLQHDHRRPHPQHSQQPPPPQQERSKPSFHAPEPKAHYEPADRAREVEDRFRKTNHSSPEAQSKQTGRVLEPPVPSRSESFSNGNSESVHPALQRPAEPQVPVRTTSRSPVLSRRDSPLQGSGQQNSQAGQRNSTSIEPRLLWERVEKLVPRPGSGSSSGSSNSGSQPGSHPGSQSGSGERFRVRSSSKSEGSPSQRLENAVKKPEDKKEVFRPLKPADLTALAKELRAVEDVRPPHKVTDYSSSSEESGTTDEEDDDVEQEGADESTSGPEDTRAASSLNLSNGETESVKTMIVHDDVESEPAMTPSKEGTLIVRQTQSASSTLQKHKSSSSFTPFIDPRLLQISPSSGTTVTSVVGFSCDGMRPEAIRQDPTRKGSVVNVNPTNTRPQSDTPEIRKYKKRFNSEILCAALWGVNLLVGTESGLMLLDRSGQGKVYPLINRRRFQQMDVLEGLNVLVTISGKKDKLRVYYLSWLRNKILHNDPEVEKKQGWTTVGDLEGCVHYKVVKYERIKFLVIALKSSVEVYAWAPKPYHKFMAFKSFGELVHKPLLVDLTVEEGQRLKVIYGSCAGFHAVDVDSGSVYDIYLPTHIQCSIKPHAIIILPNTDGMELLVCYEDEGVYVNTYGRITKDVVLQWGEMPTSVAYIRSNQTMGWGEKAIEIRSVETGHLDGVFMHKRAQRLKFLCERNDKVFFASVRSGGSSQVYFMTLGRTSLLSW
Sequence of G protein-coupled receptor kinase 5 (P34947 whole entry): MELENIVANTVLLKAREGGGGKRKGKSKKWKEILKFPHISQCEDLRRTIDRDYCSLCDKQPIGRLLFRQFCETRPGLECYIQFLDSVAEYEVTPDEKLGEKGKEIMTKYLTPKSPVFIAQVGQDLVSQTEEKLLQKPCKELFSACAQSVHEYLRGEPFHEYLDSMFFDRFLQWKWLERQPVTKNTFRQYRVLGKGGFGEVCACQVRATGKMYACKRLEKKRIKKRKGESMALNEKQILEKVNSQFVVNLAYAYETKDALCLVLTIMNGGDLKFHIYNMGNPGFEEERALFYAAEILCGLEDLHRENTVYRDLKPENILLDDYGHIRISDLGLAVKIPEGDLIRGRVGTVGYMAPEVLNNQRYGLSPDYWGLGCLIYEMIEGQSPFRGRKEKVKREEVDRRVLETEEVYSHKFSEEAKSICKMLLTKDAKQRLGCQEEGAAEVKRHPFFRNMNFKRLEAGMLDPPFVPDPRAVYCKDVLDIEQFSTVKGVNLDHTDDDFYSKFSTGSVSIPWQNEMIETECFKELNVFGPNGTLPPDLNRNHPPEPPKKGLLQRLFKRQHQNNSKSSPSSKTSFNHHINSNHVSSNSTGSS
Sequence of Tyrosine-protein kinase receptor TYRO3 (Q06418 whole entry): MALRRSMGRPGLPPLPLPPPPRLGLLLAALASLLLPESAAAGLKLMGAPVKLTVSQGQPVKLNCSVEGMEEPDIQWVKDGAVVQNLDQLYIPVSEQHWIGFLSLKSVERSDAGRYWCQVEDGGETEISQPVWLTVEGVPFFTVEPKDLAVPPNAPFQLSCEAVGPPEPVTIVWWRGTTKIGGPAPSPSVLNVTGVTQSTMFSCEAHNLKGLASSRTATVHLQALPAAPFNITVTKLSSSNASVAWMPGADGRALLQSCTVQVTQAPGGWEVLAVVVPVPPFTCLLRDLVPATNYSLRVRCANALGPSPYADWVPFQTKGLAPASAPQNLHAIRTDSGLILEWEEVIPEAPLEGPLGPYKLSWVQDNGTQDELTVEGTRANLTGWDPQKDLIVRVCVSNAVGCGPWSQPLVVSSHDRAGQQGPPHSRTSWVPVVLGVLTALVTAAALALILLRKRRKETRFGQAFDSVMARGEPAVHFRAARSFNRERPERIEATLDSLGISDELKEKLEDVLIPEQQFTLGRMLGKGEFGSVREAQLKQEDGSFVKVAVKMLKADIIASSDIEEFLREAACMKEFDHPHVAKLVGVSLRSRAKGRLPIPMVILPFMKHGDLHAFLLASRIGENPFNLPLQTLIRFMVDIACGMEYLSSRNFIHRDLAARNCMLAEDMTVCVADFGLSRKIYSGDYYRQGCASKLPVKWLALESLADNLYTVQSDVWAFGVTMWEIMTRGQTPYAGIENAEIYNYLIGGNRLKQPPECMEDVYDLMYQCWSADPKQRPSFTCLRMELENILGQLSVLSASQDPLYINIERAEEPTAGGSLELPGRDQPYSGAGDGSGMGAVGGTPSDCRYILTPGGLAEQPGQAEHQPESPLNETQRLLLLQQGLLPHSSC
Sequence of Aurora kinase B (Q96GD4 whole entry): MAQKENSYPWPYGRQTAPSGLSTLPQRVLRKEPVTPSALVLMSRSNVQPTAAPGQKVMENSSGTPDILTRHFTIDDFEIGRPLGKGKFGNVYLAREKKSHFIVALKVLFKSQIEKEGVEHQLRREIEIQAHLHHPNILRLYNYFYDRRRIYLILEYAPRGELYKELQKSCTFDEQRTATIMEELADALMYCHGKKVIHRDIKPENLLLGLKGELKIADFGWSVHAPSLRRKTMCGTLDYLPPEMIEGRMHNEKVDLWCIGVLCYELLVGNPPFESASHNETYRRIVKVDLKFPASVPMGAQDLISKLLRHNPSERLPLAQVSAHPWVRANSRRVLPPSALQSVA
Sequence of DNA dC->dU-editing enzyme APOBEC-3A (P31941 whole entry): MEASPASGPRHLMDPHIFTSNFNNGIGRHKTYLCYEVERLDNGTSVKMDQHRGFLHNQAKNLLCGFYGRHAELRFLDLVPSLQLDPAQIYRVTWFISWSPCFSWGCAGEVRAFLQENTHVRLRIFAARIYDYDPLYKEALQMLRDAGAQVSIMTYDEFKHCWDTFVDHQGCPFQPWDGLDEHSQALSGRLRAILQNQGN

CC(C)c1cc(=O)[nH]c2[nH][nH]c(=O)c12
Ki [1]: > 100 µM (inactive) | Ki [2]: 15.8 µM (active) | Ki (Aurora kinase A): 15.8 µM (active) | Ki [3]: 15.8 µM (active) | Ki [4]: 31.6 µM (active) | Ki [5]: 100 µM (active) | Ki (Aurora kinase B): 63.1 µM (active) | Ki [6]: 5.01 µM (active) | Ki [7]: 12.6 µM (active) | Ki [8]: > 79.4 µM (inactive) | Ki [9]: 63.1 µM (active) | Ki [10]: 63.1 µM (active) | Ki [11]: 63.1 µM (active) | Ki [12]: 63.1 µM (active) | Ki [13]: 15.8 µM (active) | Ki (Focal adhesion kinase 1): 79.4 µM (active) | Ki [14]: 15.8 µM (active) | Ki [15]: > 50.1 µM (inactive) | Ki [16]: 31.6 µM (active) | Ki [17]: 63.1 µM (active) | Ki [18]: 20 µM (active) | Ki [19]: 63.1 µM (active) | Ki [20]: 10 µM (active) | Ki [21]: 20 µM (active) | Ki [22]: 31.6 µM (active) | Ki [23]: 100 µM (active) | Ki [24]: 63.1 µM (active) | Ki [25]: > 100 µM (inactive) | Ki (Activated CDC42 kinase 1): 25.1 µM (active) | Ki [26]: 79.4 µM (active)

CCn1c(SCC(=O)NCc2ccco2)nnc1-c1ccccc1O
IC50 [27]: > 99 µM (inactive) | IC50 [28]: > 99 µM (inactive)

C[C@@H]1CN([C@@H](C)CO)C(=O)c2cccc(NC(=O)Nc3cccc4ccccc34)c2O[C@H]1CN(C)S(=O)(=O)c1ccccc1F
AC50 (INS1): 48.6 µM (active) | AC50 [29]: 32.7 µM (active)

CN1C(=O)C(=C2CC(c3ccc(Cl)cc3)NN2)C(=O)N(C)C1=O (centres undefined)
IC50 [30]: 14.9 µM (active) | IC50 (Apelin receptor): 7.22 µM (active) | EC50 [31]: > 260 µM (inactive) | IC50 (Beta-galactosidase): > 66.6 µM (inactive) | IC50 [32]: 5.84 µM (active) | IC50 [33]: 9.24 µM (inactive)

CCN(CC)C1=CC2=CC(=C(C#N)C#N)CCC2CC1 (centres undefined)
EC50 (HEK293 [34]): > 54.7 µM (inactive) | EC50 (Insulin-degrading enzyme [35]): > 54.7 µM (inactive) | IC50 (Beta-lactamase [36]): 1.34 µM (active) | IC50 (HEK293 [37]): > 89.2 µM (inactive) | IC50 (Beta-lactamase [38]): 3.32 µM (active) | IC50 [39]: 3 µM (active) | EC50 (Insulin-degrading enzyme [40]): > 54.7 µM (inactive)

O=C(CSc1nc2c(c(=O)[nH]1)CCC2)NC1CCCCC1
CC50 [41]: > 100 µM (active) | CC50 [42]: > 100 µM (active)

— ChEMBL document CHEMBL1201862, “PubChem BioAssay data set” (2004)
